Experimental data published in patent publication US20240131032A1, “AN ACTIVITY-GUIDED MAP OF ELECTROPHILE-CYSTEINE INTERACTIONS IN PRIMARY HUMAN IMMUNE CELLS” (The Scripps Research Institute, priority 2019, published 2024).

What was measured:
[1] = system: NF-κB; test: NF-κB activation in stimulated T cells (phosphorylation readout); assay type: cell-based, human; settings: 24 h
Method: All treatments were for 24 h.
Freshly isolated T cells (2×10^5 cells/well) were harvested and stimulated as described before in a 96-well plate in the presence of DMSO or compounds of interest. Following the overnight treatment, the cells were pelleted in a U-bottom plate, harvested by centrifugation (600 g, 3 min, 4° C.), washed with PBS, and stained with near-IR LIVE/DEAD dye as described above. After the staining, intracellular phospho-NF-κB p65 (Ser536) levels were measured using PE conjugate of phospho-NF-κB p65 (Ser536) (93H1) rabbit antibody (Cell Signaling Technology) according to manufacturer's instructions. Briefly, the cells were washed with PBS and fixed with 4% PFA in PBS (100 μL, 15 min, rt). The cells were washed with PBS again (2×150 μL), placed on ice and permeabilized with 90% MeOH (100 μL/well, slow addition with gentle mixing by pipetting up and down). Following a 30 min incubation on ice, the plate was sealed and stored at −20° C. overnight. The following day, the cells were thawed on ice, washed with PBS (150 μL×2), and stained with PE conjugate of phospho-NF-κB p65 (Ser536) (93H1) rabbit antibody (50 μL, 1:100 dilution in incubation buffer (1% FBS in PBS)) for 1 h at rt in the dark. The cells were then washed with incubation buffer (150 μL×2) and resuspended in PBS for further flow cytometry analysis.

[2] = system: NuRD complex members (MBD2, MBD3, GATAD2B); test: Cysteine reactivity profiles of NuRD complex members in treated T cells; assay type: binding, human; settings: 3 h treatment
Method: (§1) FIG. 7B is a scatter plot representation of protein abundance changes caused by BPK-25 (10 μM, 24 h) in two independent replicate experiments, with decreases in NuRD complex components highlighted in red. FIG. 7C is a heatmap of top proteins with decreased abundance in BPK-25-treated T cells showing that the subset of these proteins in the NuRD complex (asterisks) were largely unaltered by other active compounds and blocked in their degradation by co-treatment with the proteasome inhibitor MG132. […] FIG. 7E is a bar graph […] showing time-dependent reductions in NuRD complex members in human T cells treated with BPK-25 (10 μM). Left, representative western blots. Right, quantification of changes in protein. […]
(§2) At individual TMT experiment level, the following filters were applied to remove low-quality peptides: removal of non-unique peptides; removal of half-tryptic peptides; removal of peptides with more than one internal miscleaved site; removal of peptides with low (<10,000) sum of reporter ion intensities for control channels, and peptides with high variation between the replicate control channels (coefficient of variance >0.5). R values (compound-treated vs. DMSO-treated) for each peptide entry were calculated using the reporter ion intensities of DMSO and compound treated TMT channels for each treatment group with a maximum ratio cap of 20. […]

[3] = molecular target: T1, NuRD complex members (MBD2, MBD3, GATAD2B) (Homo sapiens, UniProt Q8WXI9); test: as above; assay type: binding
T1 construct: endogenous in cells; host or cells: primary human T cells, 3 h treatment
T1 sequence (Q8WXI9 whole entry, one chain of several): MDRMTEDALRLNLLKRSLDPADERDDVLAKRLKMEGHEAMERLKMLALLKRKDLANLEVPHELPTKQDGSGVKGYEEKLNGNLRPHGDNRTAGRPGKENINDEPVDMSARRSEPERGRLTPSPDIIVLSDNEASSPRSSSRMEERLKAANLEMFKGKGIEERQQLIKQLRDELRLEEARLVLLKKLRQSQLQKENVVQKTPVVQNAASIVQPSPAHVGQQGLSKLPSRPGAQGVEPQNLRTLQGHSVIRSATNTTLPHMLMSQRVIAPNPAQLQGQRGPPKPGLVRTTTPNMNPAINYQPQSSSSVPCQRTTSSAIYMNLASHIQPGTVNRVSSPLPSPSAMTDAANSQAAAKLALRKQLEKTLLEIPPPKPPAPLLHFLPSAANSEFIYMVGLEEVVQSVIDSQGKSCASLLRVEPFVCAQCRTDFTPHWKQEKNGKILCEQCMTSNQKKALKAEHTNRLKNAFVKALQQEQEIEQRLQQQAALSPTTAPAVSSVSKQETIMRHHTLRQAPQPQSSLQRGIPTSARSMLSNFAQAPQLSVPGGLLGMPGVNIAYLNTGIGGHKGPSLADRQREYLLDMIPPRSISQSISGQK
Method: as §1, §2

Structure (SMILES): C=CC(=O)N(Cc1cccc(Cl)c1Cl)c1ccc(Oc2ccccc2)c(C(F)(F)F)c1 [BPK-21]
- reductions in phosphorylation (NF-κB activation) [1]: did not appear to impact

Structure (SMILES): C=CC(=O)N(Cc1cccc(Cl)n1)c1ccc(C(=O)Nc2ccccc2)nc1 [BPK-25]
- reduction in C10/11 and C359 in MBD2, C266 in MBD3, and C308 of GATAD2B (cysteine reactivity profiles) [2]: ~50%

Structure (SMILES): COC(=O)/C=C/C(=O)OC [DMF, reference compound]
- apparent reactivity of C308 of GATAD2B [3]: decreased the apparent reactivity
